This passage reports ΔTm and IC50 results from ChEMBL document CHEMBL5365412, “Discovery of benzodiazepine derivatives as a new class of covalent inhibitors of SARS-CoV-2 main protease” (Bioorg Med Chem Lett, 2023).

Experiment [1] concerns the target Replicase polyprotein 1ab (Severe acute respiratory syndrome coronavirus 2) (UniProt P0DTD1). Briefly: Binding affinity to SARS-CoV-2 main protease assessed as change in melting temperature by DSF assay.
The target in experiment [2] is Replicase polyprotein 1ab (Severe acute respiratory syndrome coronavirus 2, UniProt P0DTD1). The experiment can be described thus: Inhibition of SARS-CoV-2 main protease by FRET assay.

For orientation: ΔTm means the shift of the melting midpoint relative to a reference. By IC50 is commonly meant the point on the concentration scale where inhibition reaches its midpoint. A lower IC50 goes with greater potency in that assay. In the case of `N#Cc1ccc2c(c1)NC1=C(C(=O)CCC1)C(c1ccc(C(F)(F)F)cc1)N2C(=O)CCl` (stereo unspecified), in experiment [1], the ΔTm is 6.02 °C. Moreover, inhibition in experiment [2] was half-maximal at 1.84 µM (IC50).

For `CC1CC(=O)C2=C(C1)Nc1cc([N+](=O)[O-])ccc1N(C(=O)CCl)C2c1ccccc1` (stereo unspecified), the ΔTm in experiment [1] turned out to be 3.16 °C. In experiment [2], this compound displayed an IC50 of 3.36 µM.

Take `CC1CC(=O)C2=C(C1)Nc1cc([N+](=O)[O-])ccc1N(C(=O)CCl)C2C1CCCC1` (stereo unspecified): the ΔTm in experiment [1] worked out at 3.01 °C. The same compound gave an IC50 in experiment [2] of 5.15 µM.

In the case of `COC(=O)c1ccc2c(c1)NC1=C(C(=O)CCC1)C(c1ccc(C(F)(F)F)cc1)N2C(=O)CCl` (stereo unspecified), the ΔTm in experiment [1] is 8.45 °C. For the same compound, half-maximal inhibition in experiment [2] (IC50) was put at 0.18 µM.

`CC1(C)CC(=O)C2=C(C1)Nc1cc([N+](=O)[O-])ccc1N(C(=O)CCl)C2C1CCC1` (stereo unspecified): the ΔTm in experiment [1] worked out at 2.72 °C. Further, 9.57 µM corresponded to half-maximal inhibition in experiment [2] (IC50).

Consider `O=C1CCCC2=C1C(c1ccc(C(F)(F)F)cc1)N(C(=O)CCl)c1ccc([N+](=O)[O-])cc1N2` (stereo unspecified), for which the ΔTm in experiment [1] is 6.6 °C. Moreover, the IC50 in experiment [2] was 1.02 µM.

As to `CC1(C)CC(=O)C2=C(C1)Nc1cc([N+](=O)[O-])ccc1N(C(=O)CCl)C2`, in experiment [1], the shift in melting temperature (ΔTm) worked out at 1.85 °C. In experiment [2], half-maximal inhibition (IC50) was put at 24.4 µM.

For the compound `O=C1CCCC2=C1C(C1CCCCC1)N(C(=O)CCl)c1ccc([N+](=O)[O-])cc1N2` (stereo unspecified), the ΔTm in experiment [1] came to 7.14 °C. Besides, it took 1.59 µM to reach half-maximal inhibition in experiment [2] (IC50).

For `O=C1CCCC2=C1CN(C(=O)CCl)c1ccc([N+](=O)[O-])cc1N2`, in experiment [1], the ΔTm was determined as 4.1 °C. In experiment [2], half-maximal inhibition (IC50) was put at 5.11 µM.

Turning to `O=C1CCCC2=C1C(C1CC1)N(C(=O)CCl)c1ccc([N+](=O)[O-])cc1N2` (stereo unspecified), in experiment [1], the ΔTm came out at 4.77 °C. The compound further returned an IC50 in experiment [2] of 2.55 µM.

Consider `CC1CC(=O)C2=C(C1)Nc1cc([N+](=O)[O-])ccc1N(C(=O)CCl)C2c1ccc(C(F)(F)F)cc1` (stereo unspecified), for which the ΔTm in experiment [1] is 4.02 °C. In experiment [2], this compound showed an IC50 of 3.31 µM.

With `CC1CC(=O)C2=C(C1)Nc1cc([N+](=O)[O-])ccc1N(C(=O)CCl)C2C1CCC1` (stereo unspecified), in experiment [1], the ΔTm came to 2.74 °C. The same compound registered an IC50 in experiment [2] of 7.32 µM.

For `CC1(C)CC(=O)C2=C(C1)Nc1cc([N+](=O)[O-])ccc1N(C(=O)CCl)C2c1ccccc1` (stereo unspecified), in experiment [1], the ΔTm worked out at 4.74 °C. In experiment [2], this compound displayed an IC50 of 4.52 µM.

As for `O=C1CCCC2=C1C(c1ccc(OC(F)(F)F)cc1)N(C(=O)CCl)c1ccc([N+](=O)[O-])cc1N2` (stereo unspecified), the ΔTm in experiment [1] worked out at 3.65 °C. Moreover, half-maximal inhibition in experiment [2] (IC50) required 2.03 µM.

Take `O=C1CCCC2=C1C(c1ccc(F)cc1F)N(C(=O)CCl)c1ccc([N+](=O)[O-])cc1N2` (stereo unspecified): in experiment [1], the ΔTm was 2.95 °C. Besides, the IC50 in experiment [2] stood at 4.09 µM.

On to `Cc1ccc(C2C3=C(CC(C)(C)CC3=O)Nc3cc([N+](=O)[O-])ccc3N2C(=O)CCl)cc1` (stereo unspecified), for which, in experiment [1], the ΔTm was found to be 3.27 °C. In experiment [2], this compound yielded an IC50 of 3.94 µM.

In the case of `CC1CC(=O)C2=C(C1)Nc1cc([N+](=O)[O-])ccc1N(C(=O)CCl)C2c1ccc(OC(F)(F)F)cc1` (stereo unspecified), the ΔTm in experiment [1] is 0.13 °C. Also, in experiment [2], half-maximal inhibition (IC50) required 4.15 µM.

Consider `Cc1ccc(C2C3=C(CC(C)CC3=O)Nc3cc([N+](=O)[O-])ccc3N2C(=O)CCl)cc1` (stereo unspecified), for which the ΔTm in experiment [1] was 1.62 °C. The same compound had an IC50 in experiment [2] of 3.35 µM.

On to `CC1(C)CC(=O)C2=C(C1)Nc1cc([N+](=O)[O-])ccc1N(C(=O)CCl)C2c1ccc(F)cc1F` (stereo unspecified), for which the shift in melting temperature (ΔTm) in experiment [1] came to 2.94 °C. In experiment [2], the IC50 was found to be 9.55 µM.

For the compound `COc1ccc(C2C3=C(CC(C)(C)CC3=O)Nc3cc([N+](=O)[O-])ccc3N2C(=O)CCl)cc1` (stereo unspecified), the ΔTm in experiment [1] is -2.76 °C. This compound also returned an IC50 in experiment [2] of 4.52 µM.

As to `CC1CC(=O)C2=C(C1)Nc1cc([N+](=O)[O-])ccc1N(C(=O)CCl)C2C1CC1` (stereo unspecified), the ΔTm in experiment [1] stood at 4.66 °C. This compound also registered an IC50 in experiment [2] of 9.06 µM.

As to `CC1C2=C(CCCC2=O)Nc2cc([N+](=O)[O-])ccc2N1C(=O)CCl` (stereo unspecified), the ΔTm in experiment [1] stood at 4.5 °C. Further, the IC50 in experiment [2] is 3.69 µM.

Consider `O=C1CCCC2=C1C(c1ccccc1)N(C(=O)CCl)c1ccc([N+](=O)[O-])cc1N2` (stereo unspecified), for which, in experiment [1], the ΔTm worked out at 5.71 °C. For the same compound, in experiment [2], the IC50 came to 1.67 µM.

Turning to `COc1ccc(C2C3=C(CC(C)CC3=O)Nc3cc([N+](=O)[O-])ccc3N2C(=O)CCl)cc1` (stereo unspecified), the ΔTm in experiment [1] was found to be 3.13 °C. Further, it took 4.45 µM to reach half-maximal inhibition in experiment [2] (IC50).

With `COc1ccc(C2C3=C(CCCC3=O)Nc3cc([N+](=O)[O-])ccc3N2C(=O)CCl)cc1` (stereo unspecified), the ΔTm in experiment [1] was found to be 4.55 °C. Moreover, the IC50 in experiment [2] was found to be 2.05 µM.

Consider `CC1(C)CC(=O)C2=C(C1)Nc1cc([N+](=O)[O-])ccc1N(C(=O)CCl)C2C1CC1` (stereo unspecified), for which the ΔTm in experiment [1] was determined as 2.01 °C. This compound also registered an IC50 in experiment [2] of 13.3 µM.

With `CC1(C)CC(=O)C2=C(C1)Nc1cc([N+](=O)[O-])ccc1N(C(=O)CCl)C2C1CCCCC1` (stereo unspecified), in experiment [1], the ΔTm turned out to be 4.64 °C. The compound further showed an IC50 in experiment [2] of 5.26 µM.

With `CC1(C)CC(=O)C2=C(C1)Nc1cc([N+](=O)[O-])ccc1N(C(=O)CCl)C2c1ccc(C(F)(F)F)cc1` (stereo unspecified), the ΔTm in experiment [1] is -0.54 °C. Half-maximal inhibition in experiment [2] (IC50) was put at 3.73 µM.

For the compound `CC1CC(=O)C2=C(C1)Nc1cc([N+](=O)[O-])ccc1N(C(=O)CCl)C2C` (stereo unspecified), the ΔTm in experiment [1] came to 3.21 °C. In addition, half-maximal inhibition in experiment [2] (IC50) was put at 11 µM.

`CC1CC(=O)C2=C(C1)Nc1cc([N+](=O)[O-])ccc1N(C(=O)CCl)C2C1CCCCC1` (stereo unspecified): the ΔTm in experiment [1] was 2.57 °C. Also, in experiment [2], the IC50 was 3.63 µM.

`CC1(C)CC(=O)C2=C(C1)Nc1cc([N+](=O)[O-])ccc1N(C(=O)CCl)C2C1CCCC1` (stereo unspecified): the ΔTm in experiment [1] stood at 3.53 °C. In addition, in experiment [2], 9.12 µM corresponded to half-maximal inhibition (IC50).

For the compound `CC1CC(=O)C2=C(C1)Nc1cc([N+](=O)[O-])ccc1N(C(=O)CCl)C2` (stereo unspecified), the ΔTm in experiment [1] turned out to be 2.79 °C. In addition, it took 11.5 µM to reach half-maximal inhibition in experiment [2] (IC50).

Take `Cc1ccc(C2C3=C(CCCC3=O)Nc3cc([N+](=O)[O-])ccc3N2C(=O)CCl)cc1` (stereo unspecified): the ΔTm in experiment [1] stood at 4.44 °C. In addition, inhibition in experiment [2] was half-maximal at 2.35 µM (IC50).

As to `O=C1CCCC2=C1C(C1CCC1)N(C(=O)CCl)c1ccc([N+](=O)[O-])cc1N2` (stereo unspecified), in experiment [1], the ΔTm was 5.83 °C. Also, in experiment [2], the IC50 amounted to 2.48 µM.

With `O=C1CCCC2=C1C(C1CCCC1)N(C(=O)CCl)c1ccc([N+](=O)[O-])cc1N2` (stereo unspecified), the ΔTm in experiment [1] came to 6.27 °C. The same compound yielded an IC50 in experiment [2] of 1.92 µM.

For `CC1(C)CC(=O)C2=C(C1)Nc1cc([N+](=O)[O-])ccc1N(C(=O)CCl)C2c1ccc(OC(F)(F)F)cc1` (stereo unspecified), in experiment [1], the ΔTm is -1.64 °C. Moreover, the IC50 in experiment [2] turned out to be 5.68 µM.

As to `CC1C2=C(CC(C)(C)CC2=O)Nc2cc([N+](=O)[O-])ccc2N1C(=O)CCl` (stereo unspecified), the ΔTm in experiment [1] is 1.32 °C. Also, the IC50 in experiment [2] was 23.3 µM.

As for `CC1CC(=O)C2=C(C1)Nc1cc([N+](=O)[O-])ccc1N(C(=O)CCl)C2c1ccc(F)cc1F` (stereo unspecified), the ΔTm in experiment [1] was found to be 3.25 °C. Besides, the IC50 in experiment [2] worked out at 6.21 µM.
